Measurements: patent US7361774B2, “Chalcone compound” (Takara Bio Inc., priority 2002, dated 2008)

What was measured:
RAW 264.7 cells [1] = test: Suppressive activity for IL-6 production induced by LPS (sandwich enzyme immunoassay); format: cell-based; conditions: compound a 1.5, 3, 6, 12 μM; compound b 3, 6, 12, 24 μM; LPS 15 hours
Protocol: RAW 264.7 cells (ATCC TIB 71) were suspended in Dulbecco's modified Eagle's medium (manufactured by Bio Whittaker, 12-604F) containing 10% fetal bovine serum (manufactured by GIBCO) so as to have a concentration of 4×10^5 cells/ml, and the suspension was put to each well of a 48-well microtiter plate in an amount of 500 μl per well. The cells were cultured at 37° C. in the presence of 5% carbon dioxide gas. After 24 hours, the medium was exchanged with Ultra CHO medium (manufactured by Bio Whittaker, 12-724Q). The compound a (dimethyl sulfoxide solution) was added to each well so as to have a concentration of 1.5, 3, 6, or 12 μM, or the compound b (dimethyl sulfoxide solution) was added to each well so as to have a concentration of 3, 6, 12, or 24 μM. After additional 4 hours of culture, a 100 μg/ml aqueous lipopolysaccharide (LPS, manufactured by Sigma, L-2010) solution was added to each well in an amount of 5 μl per well, and the cells were cultured for 15 hours. Thereafter, the supernatant of the medium was collected. The content of interleukin 6 (IL-6) in the supernatant of the medium was determined with a sandwich enzyme immunoassay (manufactured by genzyme TECHNE, 4922). In addition, there were set a group without addition of the compounds a and b as a positive control, and a group without addition of LPS as a negative control. All of the determinations were carried out twice. […]

[2] = target: T1, aldose reductase derived from human muscle cells (Homo sapiens, UniProt P15121); test: Inhibitory activity for aldose reductase (NADPH absorbance at 340 nm, methylglyoxal substrate); format: biochemical
T1 construct: purchased Wako Pure Chemical Industries
Protocol: (1) Inhibitory activities for aldose reductase of the compounds a and b were measured by the following method. Twenty microliters of 100 mM methylglyoxal was added to 10 μl of the compound a or b (dissolved in a 50% aqueous dimethyl sulfoxide solution) as a sample, 100 μl of 0.2 M phosphate buffer (pH 6.2), 20 μl of 1 mM NADPH (phosphate buffer), 10 μl of a solution of aldose reductase derived from human muscle cells (0.1 U/ml, manufactured by Wako Pure Chemical Industries, phosphate buffer). After 30 seconds passed, change in absorbance of NADPH at 340 nm was determined for 180 seconds. A 50% aqueous dimethyl sulfoxide solution was used as a negative control in place of the sample. In addition, the absorbance was determined using distilled water as a blank of each sample in place of the methylglyoxal solution. The found values are expressed as an average of the values in two experimental values. The inhibitory ratio (%) for aldose reductase was calculated in accordance with the following formula. Inhibitory Ratio (%)=[1-[(ΔAs−ΔAsb)/(ΔAc−ΔAcb)]]×100
Here, ΔAs and ΔAc are changes in absorbance per 1 minute of a sample solution, and a negative control solution, respectively, and ΔAsb and ΔAcb are changes in absorbance per 1 minute of blank of a sample solution, and a negative control solution, respectively.

RAW 264.7 cells [3] = test: Suppressive activity for NO production induced by LPS (NO2- in medium); format: cell-based; conditions: compound a 1.5, 3, 6, 12 μM; compound b 3, 6, 12, 24 μM; LPS 15 hours
Protocol: RAW 264.7 cells (ATCC TIB 71) were suspended in Dulbecco's modified Eagle's medium (manufactured by Bio Whittaker, 12-604F) containing 10% fetal bovine serum (manufactured by GIBCO), so as to have a concentration of 4×10^5 cells/ml, and the suspension was put to each well of a 48-well microtiter plate in an amount of 500 μl per well. The cells were cultured at 37° C. in the presence of 5% carbon dioxide gas. After 24 hours, the medium was exchanged with Dulbecco's modified Eagle's medium (manufactured by Bio Whittaker, 12-917F) containing 10% fetal bovine serum (manufactured by GIBCO), 2 mM L-glutamine (manufactured by Life Tech Oriental Co., Ltd., 25030-149) without containing phenol red. The compound a (dimethyl sulfoxide solution) was added to each well so as to have a concentration of 1.5, 3, 6, or 12 μM, or the compound b (dimethyl sulfoxide solution) was added to each well so as to have a concentration of 3, 6, 12, or 24 μM. […] Thereafter, the concentration of NO2^− which was produced by oxidation of NO in the medium was determined. […] Thereafter, absorbance at 540 nm was determined. The concentration of NO2 − in the medium was calculated from a calibration curve prepared from known concentrations of NaNO2. […]

[4] = system: PC12 cells (CRL-1721) derived from rat adrenal medulla pheochromocytoma, differentiated into neuron-like cells; test: Neuronal protection from NO toxicity (SNP) in NGF-differentiated PC12 cells, MTT; format: cell-based; conditions: 10 μM compound b, 50 μM SNP, 48 hours, control without compound and SNP = 100, SNP alone 59.1
Protocol: (1) The suppressive activity for NO toxicity of the compound b was assayed in accordance with the following method. PC12 cells (CRL-1721) derived from rat adrenal medulla pheochromocytoma were suspended in DMEM medium (manufactured by Bio Whittaker) containing 10% fetal bovine serum (manufactured by Bio Whittaker) so as to have a concentration of 1×10^5 cells/ml. The suspension was put in each well of a 96-well plate in an amount of 0.1 ml per well, and the cells were cultured at 37° C. in the presence of 5% carbon dioxide gas. After the cells were cultured for 24 hours, the medium was removed and exchanged with DMEM medium containing 10 ng/ml of NGF (manufactured by TAKARA BIO Inc.) and 10% fetal bovine serum. PC12 cells were cultured for 3 days, and differentiated into neuron-like cells. After the culture, the medium was removed and exchanged with DMEM medium containing 10 μM of the compound b, 10 ng/ml of NGF, and 10% fetal bovine serum. […] Solubilized formazan was determined at a wavelength of 590 nm (control wavelength of 630 nm). […] Viability ratio (%) of cells was calculated from MTT found values of each test group by defining the MTT value of the control group (group not containing the compound b and SNP) as 100.

[5] = system: PC12 cells derived from rat adrenal medulla pheochromocytoma; test: Suppressive activity for NO toxicity (SNP) in PC12 cells, MTT; format: cell-based; conditions: 10 μM compound b, 50 μM SNP, 66 hours, control without compound and SNP = 100, SNP alone 48.1
Protocol: (2) The suppressive activity of the compound b for NO toxicity was assayed in accordance with the following method. PC12 cells derived from rat adrenal medulla pheochromocytoma were suspended in DMEM medium containing 10% fetal bovine serum so as to have a concentration of 1.5×10^5 cells/ml. The suspension was put to each well of a 96-well plate in an amount of 0.1 ml per well, and cultured at 37° C. in the presence of 5% carbon dioxide gas. After 24 hours of culture, the medium was removed, and exchanged with DMEM medium containing 10 μM of the compound b and 10% fetal bovine serum. After the cells were cultured for 2 hours, SNP was added thereto so as to have a concentration of 50 μM, and the cells were cultured for 66 hours. After the termination of the culture, the MTT determination was carried out in the same manner as in item (1) of Example 4, and the viability ratio (%) of cells was calculated. All of the determinations were carried out three times.

Inhibitory Ratio (%) for Aldose Reductase ([2]; final concentration 2.5 μM)	Inhibitory Ratio (%) for Aldose Reductase ([2]; final concentration 5 μM)	Inhibitory Ratio (%) for Aldose Reductase ([2]; final concentration 10 μM)	Inhibitory Ratio (%) for Aldose Reductase ([2]; final concentration 20 μM)	SMILES	Inhibition of induction of IL-6 production by LPS (IL-6 in supernatant, FIG. 8) (RAW 264.7 cells [1])	Suppression of induction for NO production by LPS (NO2- concentration in medium, FIG. 7) (RAW 264.7 cells [3])	Viability Ratio (%) of Cells [4]	Viability Ratio (%) of Cells [5]
33.3%	48.4%	65.7%	77.2%	CC12CCC(O)C(C)(C)C1Cc1c(O)ccc(C(=O)/C=C/c3ccc(O)cc3)c1O2 (single isomer, unassigned) [Compound a, (E)-1-(5,6,7,8,8a,10a-hexahydro-1,7-dihydroxy-8,8,10a-trimethyl-9H-xanthen-4-yl)-3-(4-hydroxyphenyl)-2-propen-1-one]	inhibited the induction of IL-6 production by LPS in a concentration-dependent manner	supppressed the induction for NO production by LPS in a concentration-dependent manner		
35.1%	50.6%	66.8%	79.1%	CC(C)=CCCC1(C)Oc2c(C(=O)/C=C/c3ccc(O)cc3)ccc(O)c2CC1O (single isomer, unassigned) [Compound b, (E)-1-(3,4,-dihydro-3,5-dihydroxy-2-(3-isohexeneyl)-2-methyl-2H-1-benzopyran-8-yl)-3-(4-hydroxyphenyl)-2-propene-1-one]	inhibited the induction of IL-6 production by LPS in a concentration-dependent manner	supppressed the induction for NO production by LPS in a concentration-dependent manner	87.4%	91.0%
